Measured values as given in patent US20050107289A1, “Anti-microbial peptides and compositions” (priority 2001, published 2005).
Non-standard residues stand in square brackets, D forms with d. Residues, ends and D or L forms follow the SMILES beside them.

Experiments:
[1] = system: E. coli JM109 (DE3); assay: Time-killing curve, E. coli; assay type: cell-based, Escherichia coli; conditions: FIG. 8b; at MIC concentrations
Method: (§1) The speed at which several of the cyclic peptides of the invention kill E. coli JM 109 (DE3), Enterococcus faecium SP 180 and S. aureus (MRSA) (ATCC No. 33591 and 33592) was further tested at room temperature and/or at 37° C. A lower temperature tends to enrich the bacterial cultures for mature bacteria because the bacteria are not growing quickly. […] The presence or absence of immature bacteria in the culture may influence the rate at which the bacteria are killed, because immature bacteria tend to be more susceptible to many forms of antibiotics.
In FIG. 8b, the log of the number of E. coli colony forming units (cfu) per ml of culture is plotted versus time treated with cyclo[KRKWLWLW] (closed triangles), cyclo[KQRWLWLW] (closed circles), cyclo[KHLWLW] (closed squares), and cyclo[KKWLW] (open squares) at MIC concentrations. […] Cyclic peptide cyclo[KHKLWLW] kills effectively all E. coli within about 90 minutes. Cyclic peptides cyclo[KRKWLWLW] and cyclo[KKWLW] kill effectively all of the E. coli within about 130 minutes. […] Nonetheless, these cyclic peptides kill both types of bacteria very quickly.

[2] = system: S. aureus (MRSA) (ATCC No. 33591); assay: Time-killing curve, S. aureus MRSA ATCC 33591; assay type: cell-based, Staphylococcus aureus; conditions: FIG. 8a; at MIC concentrations
Method: as §1
To generate the data shown in FIG. 8a, the log of the number of colony forming units (cfu) per ml of culture was determined as a function of time after treatment of S. aureus (MRSA) (ATCC No. 33591) with cyclo[KHLWLW] (closed circles), cyclo[KRKWLWLW] (closed triangles), and cyclo[KQRWLWLW] (open squares) at MIC concentrations. […] The reduction in cfu count was greater than 3 log units. Cyclic peptide cyclo[KHLWLW] killed effectively all S. aureus (MRSA) within about 60 minutes.

[3] = trypsin, α-chymotrypsin, subtilisin, blood plasma; RP-HPLC over 24 h
Method: Cyclic peptides having SEQ ID NO:13, 18, 26, and 29 were assayed for proteolytic susceptibility.

SMILES | time to kill effectively all E. coli [1] | time to kill effectively all S. aureus (MRSA) [2] | proteolytic stability [3]
CC(C)C[C@H]1NC(=O)[C@H](Cc2c[nH]c3ccccc23)NC(=O)[C@@H](CCCNC(=N)N)NC(=O)[C@H](CCC(N)=O)NC(=O)[C@@H](CCCCN)NC(=O)[C@H](Cc2c[nH]c3ccccc23)NC(=O)[C@@H](CC(C)C)NC(=O)[C@H](Cc2c[nH]c3ccccc23)NC1=O [SEQ ID NO:8, cyclo-(D-Lys-Gln-D-Arg-Trp-D-Leu-Trp-D-Leu-Trp)] (cyclo([dK]Q[dR]W[dL]W[dL]W)) | within about thirty minutes | within about five minutes | –
CC(C)C[C@H]1NC(=O)[C@H](Cc2c[nH]c3ccccc23)NC(=O)[C@@H](CCCCN)NC(=O)[C@H](CCCNC(=N)N)NC(=O)[C@@H](CCCNC(=N)N)NC(=O)[C@H](Cc2c[nH]c3ccccc23)NC(=O)[C@@H](CC(C)C)NC(=O)[C@H](Cc2c[nH]c3ccccc23)NC1=O [SEQ ID NO:18, cyclo-(D-Arg-Arg-D-Lys-Trp-D-Leu-Trp-D-Leu-Trp)] (cyclo([dR]R[dK]W[dL]W[dL]W)) | – | – | stable
